According to paper PMC8049054, “Systematic Assessment of Fragment Identification for Multitarget Drug Design” (Chemmedchem, 2021):

Columns and labels:
[1] = target: T1, 5‐lipoxygenase (5‐LOX) (Homo sapiens, UniProt P09917); assay: 5-LOX activity assay (HPLC detection of product formation); assay type: biochemical; details: for 5‐LOX LE: ligand efficiency calculated from IC50; for IC50: mean±standard deviation of three independent experiments
T1 construct: made in house; host or cells: E. coli BL21 (DE3)
T1 sequence (P09917 1-674): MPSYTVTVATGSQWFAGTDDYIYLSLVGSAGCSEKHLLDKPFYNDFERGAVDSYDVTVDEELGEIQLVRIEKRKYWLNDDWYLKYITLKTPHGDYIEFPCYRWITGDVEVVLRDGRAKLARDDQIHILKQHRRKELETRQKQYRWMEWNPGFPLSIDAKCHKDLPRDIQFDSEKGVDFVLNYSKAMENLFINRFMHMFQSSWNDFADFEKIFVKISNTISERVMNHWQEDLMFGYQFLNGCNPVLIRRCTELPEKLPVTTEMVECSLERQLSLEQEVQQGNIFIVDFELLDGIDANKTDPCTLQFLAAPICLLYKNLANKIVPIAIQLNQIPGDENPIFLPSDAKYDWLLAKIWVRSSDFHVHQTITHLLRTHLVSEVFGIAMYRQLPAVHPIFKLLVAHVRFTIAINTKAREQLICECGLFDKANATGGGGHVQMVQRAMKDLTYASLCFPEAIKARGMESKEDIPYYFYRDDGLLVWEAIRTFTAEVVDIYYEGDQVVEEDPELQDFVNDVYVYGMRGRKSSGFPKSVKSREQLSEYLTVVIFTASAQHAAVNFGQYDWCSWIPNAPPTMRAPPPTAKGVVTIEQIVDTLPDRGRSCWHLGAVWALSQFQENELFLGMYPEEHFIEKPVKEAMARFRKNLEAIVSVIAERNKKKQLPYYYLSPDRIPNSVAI
Method: (§1) For hit validation, we employed secondary assays with orthogonal readouts to confirm fragment activities. Biochemical activity assays were chosen for the enzymes sEH, LTA4H, and 5‐LOX. […] RXRα and FXR modulation was assessed in cell‐based hybrid reporter gene assays. All ten compounds were tested at a single concentration of 500 μM in the sEH and LTA4H activity assays and with a concentration of 100 μM on 5‐LOX, RXRα, and FXR. Fragments showing an inhibition greater than 50 % (sEH‐H and LTA4H) or greater than 70 % (5‐LOX) as well as the hits determined in the DSF experiments were further characterized in full concentration‐response curves between 0.1 and 1000 μM. […] As alternative cell‐free assay we employed isothermal titration calorimetry (ITC) to determine binding affinity of the fragments towards the LBDs of both nuclear receptors. ITC was performed with a protein concentration of 50 μM and compound concentrations of 250 μM.
(§2) The 10 fragments showing dual activity in the DSF experiments were validated by functional assay screening with a fixed concentration of 500 µM in case of sEH-H and LTA4H, 100 µM in case of 5-LOX and 30 µM, 10 µM and 5 µM in case of FXR and […]
(§3) % (5-LOX) as well as the hits determined in the DSF experiments were further measured with concentrations between 1000 µM and 0.1 µM (sEH-H and LTA4H) and between 300 µM and 1 µM (5-LOX). The sEH and LTA4H activity assays were performed as triplicate and repeated 3 times. The 5-LOX activity assay was performed with one point per concentration and repeated 3 times Raw data was first analyzed in Microsoft Office Excel (2013), before IC50 curves were plotted and further analyzed using GraphPad Prism 7 and GraphPad Prism 8 for the shown graphs .
The eight approved drugs were measured in the orthogonal assay systems analogous to the fragments. […]
For the 5-LOX they […]
were measured as single point measurement in three different experiments with concentrations between 300 µM and 1 µM. For […]
Raw data was processed according to the fragments. […]

[2] = target: T2, soluble epoxide hydrolase (sEH) (Homo sapiens, UniProt P34913); assay: sEH-H activity assay (fluorogenic substrate PHOME); assay type: biochemical; details: for sEH LE: ligand efficiency calculated from IC50; for IC50: mean±standard deviation of three independent experiments
T2 construct: made in house; host or cells: E. coli BL21 (DE3)
T2 sequence (P34913 1-555): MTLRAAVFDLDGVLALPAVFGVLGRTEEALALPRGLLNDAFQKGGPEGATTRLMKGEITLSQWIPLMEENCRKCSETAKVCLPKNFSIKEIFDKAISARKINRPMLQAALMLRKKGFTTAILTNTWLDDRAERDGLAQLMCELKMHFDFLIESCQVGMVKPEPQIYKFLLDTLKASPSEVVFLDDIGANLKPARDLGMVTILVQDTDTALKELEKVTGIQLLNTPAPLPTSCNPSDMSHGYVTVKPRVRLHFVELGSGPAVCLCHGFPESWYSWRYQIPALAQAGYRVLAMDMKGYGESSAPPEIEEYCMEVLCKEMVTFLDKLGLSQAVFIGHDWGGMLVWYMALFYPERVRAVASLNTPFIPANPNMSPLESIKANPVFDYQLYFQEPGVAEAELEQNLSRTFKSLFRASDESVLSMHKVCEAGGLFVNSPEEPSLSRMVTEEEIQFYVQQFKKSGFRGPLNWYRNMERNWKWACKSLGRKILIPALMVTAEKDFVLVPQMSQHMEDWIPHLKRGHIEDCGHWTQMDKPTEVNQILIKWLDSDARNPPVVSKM
Method: as §1, §2, §3
The eight approved drugs were measured in the orthogonal assay systems analogous to the fragments. The approved drugs were […]
For the sEH-H and LTA4H, they were measured as triplicate in concentrations between 1000 µM and 1 µM and each measurement was repeated three times. For the 5-LOX they were measured as single point measurement in three different experiments with concentrations between 300 µM and 1 µM. For […]
Raw data was processed according to the fragments.
The sEH-H activity assay was performed adapted from Hahn et al.5 and Lukin et al.6. In short 1 µl of compound dilution in DMSO or pure DMSO (for the positive and negative control) was placed in a black 96-well plate (Thermo Scientific™ Nunc™ F96 MicroWell™ Black Polystyrene Plate) and then 89 µl of protein-mix or buffer mix (without protein as negative control) were added and the mixture was incubated for 30 min at room temperature. 10 µl of 0.6 mM 3-phenyl-cyano(6-methoxy-2-naphthalenyl)methylester-2-oxiraneacetic acid (PHOME) were added to every well. The Plate was measured every minute for 45 min. Final concentration per well was 3 nM sEH-Fl, 0.001 % Triton X-100, 25 mM Bis-tris, 0.1 mg/ml BSA, pH = 7.0, 1.6% DMSO […]

5‐LOX LE [1] [kcal/mol]	IC50 [1] [µM]	sEH LE [2] [kcal/mol]	IC50 [2] [µM]	Structure (SMILES)
–	118 ± 45.1	–	56.6 ± 5.4	CCN(Cc1ccccc1)c1ccccc1 [Compound 7]
0.44	6.5 ± 2.2	0.33	141 ± 34.1	Clc1ccc2c(c1)Nc1ccccc1CC2 [Compound 8]
0.38	64.6 ± 26.4	0.36	108 ± 11	Oc1ccc(-c2ccc(F)cc2F)cc1 [Compound 9]
0.36	54.3 ± 19.7	0.33	120 ± 22.4	Fc1ccc(-c2c[nH]c3ccccc23)cc1 [Compound 10]

Continued, compound first:

Structure (SMILES)	5‐LOX LE [1] [kcal/mol]	IC50 [1] [µM]	sEH LE [2] [kcal/mol]	IC50 [2] [µM]
Cc1cc(=O)n(-c2ccc(C)c(C)c2)[nH]1 [Compound 2]	0.42	21.2 ± 7.3	0.35	135 ± 9.1
CCCCOc1cc(C(=O)OC)ccc1N [Compound 3]	–	–	<0.3	> 300
Oc1ccc(Cc2ccccc2)cc1 [Compound 4]	–	–	–	151 ± 5.8
Oc1ccc2cc[nH]c2c1 [Compound 5]	0.64	19.9 ± 2.4	–	–
Cc1ccccc1C(=O)Nc1ccccc1 [Compound 6]	–	–	0.31	226 ± 18.5
